Laboratory results: BindingDB's records for doi:10.7270/Q2TX3CTT (Broad Institute, 2010)
Structures can show the parent of a compound that is named as a salt.

Target: Glycogen synthase kinase-3 beta (Homo sapiens, UniProt P49841)
Assay: concentration-response blocking of human GSK3B – biochemical, luminescence, cell-free homogeneous, retest, dose response (AID 434954)

Sequence of Glycogen synthase kinase-3 beta (P49841 whole entry): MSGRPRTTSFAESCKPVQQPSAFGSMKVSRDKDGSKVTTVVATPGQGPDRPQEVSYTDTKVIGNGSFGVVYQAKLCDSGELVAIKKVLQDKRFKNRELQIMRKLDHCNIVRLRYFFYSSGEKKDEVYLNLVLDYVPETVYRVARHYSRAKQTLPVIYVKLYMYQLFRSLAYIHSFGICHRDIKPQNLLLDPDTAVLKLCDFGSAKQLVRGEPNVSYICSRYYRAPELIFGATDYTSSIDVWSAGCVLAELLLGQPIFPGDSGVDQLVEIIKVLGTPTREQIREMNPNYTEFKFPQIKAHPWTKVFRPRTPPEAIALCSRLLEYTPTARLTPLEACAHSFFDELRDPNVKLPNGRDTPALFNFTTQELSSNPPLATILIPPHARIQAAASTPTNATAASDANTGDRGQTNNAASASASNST

EC50 [µM]	SMILES
> 300	Cc1[nH]c2ccccc2c1Cc1nnc(SCC(N)=O)o1 [2-[[5-[(2-methyl-1H-indol-3-yl)methyl]-1,3,4-oxadiazol-2-yl]sulfanyl]acetamide]
61.8	CCOc1cc(C(=O)OCC(=O)Nc2ccc(Cl)cn2)ccc1OCC(=O)N1CCOCC1 [MLS000334350]
> 300	C=CCNC(=O)c1ccc(OC)cc1 [4-methoxy-N-prop-2-enylbenzamide]
> 300	Cn1nc2c3ccccc3n(Cc3ccc(F)cc3)c2nc1=S
0.436	COc1cc(C=NNC(=O)c2sc(N)c(C#N)c2C)ccc1O [MLS000540774]
> 300	COc1ccc(/C=C2/SC(NS(=O)(=O)Cc3ccccc3)=NC2=O)cc1OC [N-[(5E)-5-[(3,4-dimethoxyphenyl)methylidene]-4-oxo-2-thiazolyl]-1-phenylmethanesulfonamide]
> 300	Cc1ccc(OCCN(C)C(=O)C2CCC(=O)N(CCCN3CCOCC3)C2)cc1 (centres undefined)
> 300	Cc1cc(C)n2nc(SCC(=O)N(CC(C)C)c3c(N)n(CC(C)C)c(=O)[nH]c3=O)nc2n1
> 300	COc1cccc(C(=O)Nc2nnc(C(C)C)s2)c1 [SMR000013475]
0.565	Cc1ccc(-c2nn(-c3ccccc3)cc2CN=O)cc1 [N-[[3-(4-methylphenyl)-1-phenylpyrazol-4-yl]methylidene]hydroxylamine]
> 300	COC(=O)c1ccccc1OCCOc1ccccc1C(=O)OC
> 300	Cc1ccnc(NC(=O)Cn2ccc([N+](=O)[O-])n2)c1 [N-(4-methylpyridin-2-yl)-2-(3-nitropyrazol-1-yl)ethanamide]
> 300	CC1=C(C#N)C(=O)NC(=O)C1=CNc1ccc(S(=O)(=O)N(C)C)cc1
> 300	O=C(O)c1ccc(-c2ccc(CN=Nc3ccc([N+](=O)[O-])cc3)o2)cc1
> 300	COc1ccc(OC)c(C(=O)c2coc3ccc(OC)cc23)c1 [MLS000108671]
59.6	CCN(Cc1ccccc1)S(=O)(=O)c1ccc2c(c1)NC(=O)CC(=O)N2 [N-ethyl-2,4-dioxo-N-(phenylmethyl)-1,5-dihydro-1,5-benzodiazepine-7-sulfonamide]
1.72	Cc1cccc(Nc2nc(NCCCN3CCOCC3)nc(N)c2[N+](=O)[O-])c1 [N4-(3-methylphenyl)-N2-(3-morpholin-4-ylpropyl)-5-nitro-pyrimidine-2,4,6-triamine]
1.9	CCOC(=O)CSc1ccc2nnc(-c3ccncc3)n2n1
> 300	O=C(Cn1nnc(-c2ccccc2)n1)NN=Cc1ccc(-c2ccc(Cl)cc2)o1 [N'-{[5-(4-chlorophenyl)-2-furyl]methylene}-2-(5-phenyl-2H-tetrazol-2-yl)acetohydrazide]
> 300	O=S1(=O)CC2SC(=S)N(c3ccccc3)C2C1 (centres undefined)
> 300	Cc1ccc2sc(N(CCN(C)C)C(=O)c3ccc(S(=O)(=O)N4CC(C)OC(C)C4)cc3)nc2c1C (centres undefined) [N-[2-(dimethylamino)ethyl]-N-(4,5-dimethyl-1,3-benzothiazol-2-yl)-4-(2,6-dimethylmorpholin-4-yl)sulfonyl-benzamide;hydrochloride]
> 300	Cc1cc(NC(=O)/C=C/c2cccc(F)c2)n(-c2nc3ccccc3[nH]2)n1 [(E)-N-[2-(1H-benzimidazol-2-yl)-5-methylpyrazol-3-yl]-3-(3-fluorophenyl)prop-2-enamide]
> 300	COc1ccc(OC)c(C=NNC(=O)CCc2c(C)n[nH]c2C)c1 [MLS000769019]
0.0779	OCCCNc1nccc(-c2cc(Nc3cccc(Cl)c3)ncn2)n1 [3-[[4-[6-[(3-chlorophenyl)amino]pyrimidin-4-yl]pyrimidin-2-yl]amino]propan-1-ol]

EC50 [µM]	SMILES
11.3	CCCN(CCC)CCCNc1ccc2nnc(-c3ccc(F)cc3)n2n1 [N-[3-(4-fluorophenyl)-[1,2,4]triazolo[4,3-b]pyridazin-6-yl]-N',N'-dipropyl-propane-1,3-diamine]
> 300	NS(=O)(=O)c1ccc(CCNC(=O)C(=O)c2cn(CC(=O)N3CCCC3)c3ccccc23)cc1 [MLS001235966]
> 300	CCn1nc(NC(=O)CC(C)C)c2cc3cccc(C)c3nc21 [SMR000542878]
5.67	CCN1CCN(c2c(C=O)c(Cl)nc3ccc(OC)cc23)CC1
1.48	COc1ccc(C(=O)c2sc(Nc3ccccc3F)nc2N)cc1
> 300	CCN(CC)Cc1c(O)ccc2c(=O)c(-c3ccc4c(c3)OCCO4)coc12 [MLS000552107]
> 300	CSc1nc2c(c(=O)[nH]1)C(c1cccs1)C1C(=O)CCCC1=N2 (centres undefined)
> 300	CCOC(=O)c1[nH]c(C)c(C(=O)NCc2ccc(OC)cc2)c1C
> 300	COc1ccc(-c2nn(-c3ccccc3)cc2C=O)cc1[N+](=O)[O-] [MLS001163277]
> 300	CCOc1ccc(CNC(=O)Cn2ccc3cc(S(=O)(=O)N4CCCCCC4)ccc32)cc1 [SMR000629622]
> 300	COc1ccc(Nc2nc(Nc3ccc(OC)cc3)nc(-n3[nH]c(=O)c(C)c3C)n2)cc1 [2-[4,6-bis(4-methoxyanilino)-1,3,5-triazin-2-yl]-3,4-dimethyl-1H-pyrazol-5-one]
> 300	CC1CCCN(S(=O)(=O)c2ccc(Br)s2)C1 (centres undefined) [SMR000021898]
> 300	Cc1ccc(S(=O)(=O)NCC(=O)N(CCc2ccccc2)CC(=O)NCc2ccco2)cc1 [N-[2-(furan-2-ylmethylamino)-2-oxoethyl]-2-[(4-methylphenyl)sulfonylamino]-N-(2-phenylethyl)acetamide]
> 300	COc1ccc(-c2c(C)oc3ccc(C)cc23)cc1 [MLS000562305]
> 300	COc1cccc(C(=O)CC(C#N)c2ccc(F)cc2)c1 (centres undefined) [MLS001165246]
> 300	O=C(O)/C=C/c1cn(-c2ccccc2)nc1-c1cccc([N+](=O)[O-])c1 [MLS000774824]
> 300	N#Cc1c(O)nc(SCC(=O)Nc2ccc(OC(F)(F)Cl)cc2)nc1-c1ccccc1 [N-{4-[chloro(difluoro)methoxy]phenyl}-2-[(5-cyano-6-oxo-4-phenyl-1,6-dihydropyrimidin-2-yl)thio]acetamide]
> 300	COC(=O)c1cn(NC(=O)c2cccnc2)c(=O)c2ccccc12 [1-keto-2-nicotinamido-isoquinoline-4-carboxylic acid methyl ester]
75.5	Fc1ccc(-c2nnc(SCc3cccnc3)o2)cc1 [2-(4-fluorophenyl)-5-(pyridin-3-ylmethylsulfanyl)-1,3,4-oxadiazole]
> 300	CCOC(=O)C1C(C(F)(F)F)=Nc2ncnn2C1c1cc(OC)ccc1OC (centres undefined)
> 300	CC1=C(C(=O)OCC2CCCO2)C(c2ccsc2)C2C(=O)CC(C)(C)CC2=N1 (centres undefined) [SMR000279706]
> 300	Cc1c([CH+][N-]NC(=O)COc2ccccc2[N+](=O)[O-])c2ccccc2n1C [N-[(1,2-dimethylindol-3-yl)methylideneamino]-2-(2-nitrophenoxy)acetamide]
> 300	COc1ccc(-c2nn(CCC(=O)O)cc2C=NNC(N)=S)cc1 [3-[4-[(carbamothioylhydrazinylidene)methyl]-3-(4-methoxyphenyl)-1-pyrazolyl]propanoic acid]

SMILES	EC50 [µM]
Cc1ccc(OCC(=O)N/N=C/c2ccc(O)c([N+](=O)[O-])c2)c([N+](=O)[O-])c1 [SMR000312577]	> 300
CCCCOc1ccc(/C=C/C(=O)OCC(=O)N2CC(=O)Nc3ccccc32)cc1OCC [[2-oxidanylidene-2-(3-oxidanylidene-2,4-dihydroquinoxalin-1-yl)ethyl] (E)-3-(4-butoxy-3-ethoxy-phenyl)prop-2-enoate]	> 300
